This is an account of results in patent publication US10054581B1, “Inhibitors of notch signaling pathway and use thereof in treatment of cancers” (Ecole Polytechnique Federale de Lausanne (EPFL), priority 2011, dated 2018).

SMILES strings stand for the structures. “Also recorded” adds a separate entry of the source.

For assay [1], the system named is Notch signalling via DL4:N2 ligand-receptor pair (Notch2). As to the kind of experiment: DL4:N2 coculture assay, Notch driven luciferase reporter. The class given is cell-based. The settings on record: 10 μM, 24 hours. The source says:
Next Applicants investigated whether I3 could block pathway activation via other Notch receptors or is it specific to Notch1 signalling. To address this, a coculture assay was used where Notch signalling was activated via DL4:N1 or DL4:N2 ligand receptor pairs.
(In general: A reporter such as luciferase makes a cellular process visible.)

Assay [2] relates to Hes1 in DND41-Parental cells. In words: Hes1 Western blot in DND41-Parental cells. In kind it is cell-based, human. The settings on record: 24 hours. Here is the method:
Cells were lysed in RIPA buffer (50 mM Tris.Cl, pH 7.5, 150 mM NaCl, 1% nonidet P-40, 0.5% sodium deoxycholate and 0.1% SDS) for 30 minutes at 4° C. Lysed cells were centrifuged to remove the debris at 14000 rpm at 4° C. Supernatant was transferred to a new eppendorf tube. The protein concentration was determined by Bradford assay using spectrophotometer (Ultrospec 3000 pro). 40 μg of protein were denatured in 1×SDS gel loading buffer (100 mM Tris.Cl, pH 6.8, 200 mM DTT, 4% SDS, 0.2% bromophenol, 20% glycerol) by heating at 99° C. for 5 minutes. Denatured protein samples were stored on ice until loading on to the acrylamide gel. The samples were run on 8% or 10% acrylamide gel in Tris-glycine electrophoresis buffer (25 mM Tris, 250 mM glycine, 0.1% SDS). […]
For immunoblotting, membranes were blocked with 5% milk and incubated overnight with primary antibodies at 4° C. […] Signal was detected with Super Signal West chemiluminescent substrate (Thermo Scientific, catalog number 34077).
(§1) 6-(4-Tert-Butylphenoxy)Pyridin-3-Amine (I3) can block NICD mediated activation of the Notch pathway (FIGS. 1A-D). […] In addition, these two cell lines were also monitored over several days for anti-proliferative effects of 6-(4-Tert-Butylphenoxy)Pyridin-3-Amine (I3) and DAPT.
On the technique in general: In western blotting, separated proteins are transferred to a membrane and probed.

The next assay concerns RPMI 8402. In words: Alamar blue proliferation assay, RPMI 8402. In kind it is cell-based, human. To be noted: 10 μM, up to 6 days. The protocol:
(§2) Human T-ALL cell lines RPMI 8402 and KOPTK1, and pancreatic cancer cell line PANC1 as well as nRas driven melanoma cells were seeded in a 96 well plate and treated with 10 μM concentration of 6-(4-Tert-Butylphenoxy)Pyridin-3-Amine (I3) and DAPT for several days. Their growth inhibitory effects were compared with cells treated with equal amount of DMSO. Using Alamar blue assay, the growth kinetics of RPMI 8402 and KOPTK1 were followed for upto 6 days, while PANC1 and nRas melanoma cells were monitored for 4 days. 6-(4-Tert-Butylphenoxy)Pyridin-3-Amine (I3) treatment of RPMI 8402, KOPTK1. […] Statistical analyses were done using student's t.test. *=p value<0.05. ns=not significant.
(§3) Alamarblue® proliferation assays were performed to determine the growth kinetics of Notch inhibitor treated cells. Alamar Blue® consists of a cell permeable substrate resazurin. In metabolically active and proliferating cells, resazurin is converted to resorufin due to an intrinsic reducing power of live cells and produces a red fluorescence. Therefore production of resorufin serves as an indicator of the viability of the cell population.
(§4) Proliferation assays were performed by seeding 5000 cells/well in a 96 well plate. Cells were treated with DMSO or Notch inhibitors for different time intervals. […] Alamarblue readout was taken using Tecan F500 (Tecan) multiplate reader. […]
(Resazurin is reduced to fluorescent resorufin, in cell work by metabolically active cells.)

The test system of a further assay is KOPTK1. As to the kind of experiment: Alamar blue proliferation assay, KOPTK1. In kind it is cell-based, human. The settings on record: 10 μM, up to 6 days. Here is the method:
as §2, §3, §4

The next assay has as its system PANC1. In words: Alamar blue proliferation assay, PANC1. The class given is cell-based, human. The settings on record: 10 μM, 4 days. The protocol:
as §2, §3, §4

A further assay concerns DND41-Parental cell line. As to the kind of experiment: Alamar blue proliferation assay, DND41-Parental. In kind it is cell-based, human. The settings on record: over 5 days. The protocol:
(§5) FIGS. 5A-5E show 6-(4-Tert-Butylphenoxy)Pyridin-3-Amine (I3) blocks NICD dependent growth of human cancer cells. […] Western blot analyses were carried out for Hes1 protein using Hes1 specific antibodies. […] Growth kinetics of the parental cell line was followed over 5 days using Alamar blue readout. […] This mutation renders this cell line insensitive to γ-secretase inhibitor treatment. […] The cells were treated with DMSO, γ-secretase inhibitor DAPT and I3 for 6 days. Alamar blue readout was taken at day 0, day 2, day 4 and day 6. Eight replicates were used for each treatment and time point. […] P values were calculated using Student's t.test. *=p value<0.05. ns=not significant.
(§6) Alamarblue® proliferation assays were performed to determine the growth kinetics of Notch inhibitor treated cells. […] In metabolically active and proliferating cells, resazurin is converted to resorufin due to an intrinsic reducing power of live cells and produces a red fluorescence. […]
(§7) Proliferation assays were performed by seeding 5000 cells/well in a 96 well plate. […] Alamarblue readout was taken using Tecan F500 (Tecan) multiplate reader.
as §1

For the next assay, the system named is DND41-NICD cells. In words: Alamar blue proliferation assay, DND41-NICD. The class given is cell-based, human. The settings on record: over 5 days. The protocol:
as §5, §6, §7, §1

The test system of the next assay is C2C12 myoblasts. As to the kind of experiment: C2C12 myoblast differentiation assay. In kind it is cell-based. The settings on record: growth medium (10% serum), 3 days. The protocol:
C2C12 cells were grown on collagen-coated cover slip in the presence of growth media (10% serum). To induce myoblast differentiation, cells were grown to 100% confluency for 3 days in the presence of differentiation media (2% horse serum) or in the presence of growth media+Notch inhibitors. After 3 days, cells were washed with 1× ice-cold PBS and fixed with 4% PFA. Immunofluorescence staining was performed using anti-MHC antibody as explained in the section 2.2.6 (Immunofluorescence staining).
To further confirm the Notch inhibitory potential of 6-(4-Tert-Butylphenoxy)Pyridin-3-Amine (I3) in different systems, C2C12 myoblast differentiation was used as a functional assay. The Notch pathway activation in C2C12 myoblasts retains them in an undifferentiated state, while abrogation of Notch signalling induces their differentiation. C2C12 myoblasts were treated with DMSO, 6-(4-Tert-Butylphenoxy)Pyridin-3-Amine (I3) and DAPT and grown to 100% confluency for 3 days. After three days, cells were fixed and stained with antibodies against Myosin Heavy Chain (MHC) protein. Cell nuclei were counterstained with DAPI.

With `C[C@H](NC(=O)Cc1cc(F)cc(F)c1)C(=O)N[C@H](C(=O)OC(C)(C)C)c1ccccc1` [DAPT, N—[N-(3,5-difluorophenacetyl-Lalanyl)]-(S)-phenylglycine t-butyl ester, reference compound], in assay [1], the “DL4:N2 (Notch2) driven pathway activation” value is “block Notch1 and Notch2 induced pathway activation”. Further, the Hes1 protein entry in assay [2] is listed as “led to a downregulation of Hes1; also recorded: caused a downregulation of Hes1 in DND41-Parental cells”. Also, the “proliferation (Alamar blue)” value in the assay with RPMI 8402 was “induced a significant proliferation block”; with KOPTK1, “induced a significant proliferation block”; with PANC1, “induced a significant proliferation block”; with DND41-Parental cell line it was “caused a significant proliferative block; also recorded: caused a proliferation arrest”; with DND41-NICD cells it was “did not have a significant impact on their proliferation”. The “differentiation into MHC positive myotubes” value in the assay on C2C12 myoblasts is listed as “started to differentiate into multinucleated MHC positive myotubes”.

As to `CC(C)(C)c1ccc(Oc2ccc(N)cn2)cc1` [I3, 6-(4-Tert-Butylphenoxy)Pyridin-3-Amine], the “DL4:N2 (Notch2) driven pathway activation” value in assay [1] is “caused an inhibition of Notch signalling via both DL4:N1 and DL4:N2 ligand-receptor pairs; also recorded: block Notch1 and Notch2 induced pathway activation”. The Hes1 protein result in assay [2] is reported as “led to a downregulation of Hes1; also recorded: caused a downregulation of Hes1 in DND41-Parental cells”. For the same compound, the “proliferation (Alamar blue)” value in the assay on RPMI 8402 is “induced a significant proliferation block; also recorded: caused a significant reduction in their growth potential”; in the assay on KOPTK1, “induced a significant proliferation block; also recorded: caused a significant reduction in their growth potential”; in the assay on PANC1, “induced a significant proliferation block; also recorded: caused a significant reduction in their growth potential”; in the assay on DND41-Parental cell line it was “caused a significant proliferative block; also recorded: caused a proliferation arrest”; with DND41-NICD cells, “induced a proliferation arrest; also recorded: able to block proliferation of NICD overexpressing leukemic cell lines which are resistant to DAPT”. The “differentiation into MHC positive myotubes” value in the assay on C2C12 myoblasts was “started to differentiate into multinucleated MHC positive myotubes; also recorded: can induce differentiation of C2C12 cells into MHC expressing multinucleated myotubes”.
